Test results: patent publication US6958359B1, “Vanadium compounds as anti-angiogenic agents” (Parker Hughes Institute, priority 2000, dated 2005)

Legend:
[1] = tested on: breast cancer cell line BT-20; test: MTT cytotoxicity assay; type: cell-based, human; conditions: BT-20, MTT, 48 hours; read-out: IC50 inhibition of proliferation
Experimental: (§1) Observations of cell division and development of the ZF embryos were carried out using a SMZ-10A stereo microscope (Nicon, Melville, N.Y.), once every 30 minutes within the first 3 hours of incubation and at 6, 12 and 24 hours, as well. […] The stereo microscope was fitted with a specially designed transparent heating tray in order to keep embryos at ST during observations. Pictures of the embryos were taken with a H-III Photomicrographic System (Nicon, Melville, N.Y.) using Ektachrome 64X film (Kodak, Rochester, N.Y.). Cytotoxicity MTF Assays The cytotoxicity of [VCp2(acac)](CF3SO3) against human cancer cell lines was performed as described previously (Ghosh et al, Clinc Canc Res, 6:1536, 2000) using the MTT (3-[4,5-dimethylthiazol-2-yl]-2,5-diphenyl tetrazolium bromide) assay (Boehringer Mannheim Corp., Indianapolis, Ind.). Briefly, exponentially growing tumor cells were seeded into a 96-well plate at a density of 2.5×10^4 cells/well and incubated [VCp2(acac)](CF3SO3) or 0.1% DMSO in PBS concentrations ranging from 0.1 to 250 μM. Following incubation with drug for 48 hours at 37° C., to each well, 10 μl of MTT (0.5 mg/ml final concentration) was added and the plates were incubated at 37° C. for 4 hours to allow MTT to form formazan crystals by reacting with metabolically active cells. The formazan crystals were solubilized overnight at 37° C. in a solution containing 10% SDS in 0.01 M HCl. The absorbance of each well was measured in a microplate reader (Labsystems) at 540 nm and a reference wavelength of 690 nm. The percent survival and the IC50 values were calculated using Graphpad Prism software version 2.0 (Graphpad Software, Inc., San Diego, Calif.), as described previously. Ghosh et al, Clinc Canc Res, 6:1536, 2000.

[2] = tested on: glioblastoma cell line U373; test: MTT cytotoxicity assay; type: cell-based, human; conditions: 48 hours, read-out: IC50 inhibition of proliferation
Experimental: as §1

[3] = tested on: breast cancer cell line MDA-MB-231; test: MTT cytotoxicity assay; type: cell-based, human; conditions: MDA-MB-231, MTT, 48 hours; read-out: IC50 inhibition of proliferation
Experimental: as §1

[4] = tested on: BT-20 breast cancer cells; test: Immunocytochemistry and confocal microscopic analysis of mitotic spindles; type: cell-based, human; conditions: BT-20 cells, α-tubulin and DNA staining, confocal laser scanning microscopy
Experimental: At the appropriate time points coverslips containing BT-20 cells were fixed in−20° C. methanol for 15 minutes followed by 15 minutes incubation in phosphate buffered saline +0.1% Triton X-100 (PBS-Tx). Coverslips were next incubated with a primary antibody recognizing α-tubulin (Sigma, St.Louis Mo.) for 40 minutes in a humidified chamber at 37° C. Coverslips were washed for 15 minutes in PBS-Tx followed by a 40 minutes incubation with a fluorescently labeled secondary antibody (Jackson Immunoresearch, West Grove, Pa.). The coverslips were again rinsed in PBS-Tx and incubated with 5 μM Toto-3 (Molecular Probes, Eugene Oreg.) for 20 minutes to label the DNA. Coverslips were immediately inverted onto slides in Vectashield (Vector Labs, Burlingame, […].) to prevent photobleaching, sealed with nail polish and stored at 4° C.
Slides were examined using a Bio-Rad MRC-1024 Laser Scanning Confocal Microscope mounted on a Nikon Eclipse E800 upright microscope with high numerical aperture objectives. Slides were examined to determine the percentage of cells in interphase vs. mitosis and representative images were taken. Digital data was processed using Lasersharp (Bio-Rad, Hercules, Calif.) and Photoshop (Adobe Systems, Mountain View, Calif.) software and printed on a Pictrography printer (Fuji Photo Elmsford, N.Y.)

[5] = tested on: two-cell stage ZF eggs; test: Zebrafish embryo microinjection into cytoplasm of two-cell stage eggs; type: in vivo, Danio rerio
Experimental: Microinjections were performed with the help of a SMZ-10A stereo microscope (Nicon, Melville, N.Y.) and transjector 5246 (Eppendorf Scientific Inc, Westbury, N.Y. 11590) at RT. The eggs in chorions were restrained in agar grooves filled with EM, and the drug containing solution was introduced into the cytoplasm of one of the blastomeres of the two-cell stage eggs through a micropipette with a splinted sharp tip of 2-3 μm in diameter. All microinjections were performed under visual control. Drugs for injection were dissolved in Hank's Balanced Salt Saline (Gibco, Rockville, Md.) with 10% DMSO. The volume of the solution injected into each blastomere was approximately […]. For every drug, 40-50 embryos were injected in 30 minutes of one series of experiment. After the treatment the embryos were transferred back to ST and studied as above.
(§2) Observations of cell division and development of the ZF embryos were carried out using a SMZ-10A stereo microscope (Nicon, Melville, N.Y.), once every 30 minutes within the first 3 hours of incubation and at 6, 12 and 24 hours, as well. […] The absorbance of each well was measured in a microplate reader (Labsystems) at 540 nm and a reference wavelength of 690 nm. The percent survival and the IC50 values were calculated using Graphpad Prism software version 2.0 (Graphpad Software, Inc., San Diego, Calif.), as described previously. […]

[6] = tested on: CAMs of growing chick embryos; test: Chick embryo chorioallantoic membrane (CAM) assay, inhibition of angiogenesis; type: in vivo, chick (white Leghorn chicken); conditions: for Avascular Zone: assessed 48 hours after implantation
Experimental: Inhibition of embryonic angiogenesis was determined using a bioassay system involving CAMs of growing chick embryos, as previously described (Nguyen et al, Microvascular Research, 47:31, 1994; Auerbach et al, Developmental Biology, 41:391, 1974). Fertilized white Leghorn chicken eggs were received at day 3 of incubation from the University of Minnesota Poultry Research Center, St. Paul, Minn. The following procedures took place in a sterile laminar flow hood. The eggs were wiped down with 70% isoprpyl alcohol and allowed to air dry. The eggs were wiped with Betadine and placed in a horizontal position for approximately 5 minutes and allowed to dry. The eggs were cracked and placed into sterile 100×20 mm^2 Petri dishes (Fischer, Itasca, Ill.) and transferred to a 37° C. humidified incubator (1.5% CO2). […] Louis, Mo.) were prepared by pipetting 10 μl of the compound, using a positive displacement pipette, onto sterile Teflon™ PFA Petri dishes (VWR, Chicago, Ill.) and drying in a vacuum desiccator at ambient temperature. […] The eggs were returned to a humidified 1.5% CO2/37° C. incubator.
Inhibition of angiogenesis was assessed 48 hours after implantation by measuring the avascular one in the CAM beneath the pellet, followed by photographic documentation of the CAM. Pellets containing 200 μg suramin (Calbiochem, La Jolla, Calif.) served as a positive control. The methylcellulose disk alone with no added compounds served as a negative control. Significant inhibition of angiogenesis was defined as the presence of an avascular zone of at least 3 mm in diameter around the methylcellulose disk.

[7] = tested on: Zebra fish embryos; test: Zebrafish embryo model system, incubation of dechorionated two-cell stage embryos with drug; type: in vivo, Danio rerio
Experimental: ZF eggs were removed from their chorions by mild digestion in 1% Trypsin-EDTA (Sigma, St.Louis, Mo.) for 10 minutes at 28.5° C. (Standard temperature—ST), washed three times in “egg water” and twice in “embryonic medium” (EM), according to recommendations (Westerfield, The Zebrafish Book, Supra). The dechorionated two-cell stage cleaving eggs were transferred to the 24-well plastic cell culture plates (Costar, Cambridge, Mass.) filled with EM. Dechorionated embryos (10-12 per well) were exposed to the drugs at a constant ST for 0.5-24 hours. The final volume of the media in each well was 500 μL. The compound was tested at concentrations ranging from 10 μM to 4 mM. First dissolved in DMSO, it was then diluted serially with the incubation medium. The final concentration of DMSO in the wells was 1.2%. […]
as §2

With `CC(=O)C=C(C)[O-].O=S(=O)([O-])C(F)(F)F.[V+4].c1cc[cH-]c1.c1cc[cH-]c1` [VDacac, Vanadocene acetylacetonato monotriflate] the IC50 [1] was 25.1 µM, the IC50 [2] was 35.7 µM and the IC50 [3] was 9.6 µM. For the same molecule, the mitotic spindle organization [4] was “aberrant monopolar mitotic structures”, the “anti-proliferative effect after microinjection” value ([5]; 1 pmol/embryo microinjected) was “formation of a blastocoel-like cavity in the blastoderm of late blastulae and early gastrulae and disrupted further gastrulation” and the “anti-proliferative effect after microinjection” value ([5]; 40 pmols/cell microinjected) was “slowed down cell division and resulted in deterioration of the cell localization pattern and developmental block”. For the same molecule, the “Avascular Zone” value ([6]; VDacac 1 (mg) pellet on CAM) was 7.0 ± 1.5 mm^2, the “Avascular Zone” value ([6]; VDacac 10 (mg) pellet on CAM) was 38.4 ± 16.6 mm^2 and the “Avascular Zone” value ([6]; VDacac 100 (mg) pellet on CAM) was 92.4 ± 24.9 mm^2. The “effect on angiogenesis in CAM” value ([6]; methylcellulose disks, doses ranging from 1 μg to 100 μg, 4-6 day old chick embryos) was “rapidly inhibited angiogenesis and produced within one hour a large avascular zone”, the “effect on cell division / embryonic development” value ([7]; 0.6 mM in embryonic medium, 28.5° C.) was “cell division block at the 8-16 cell stage of embryonic development followed by total cell fusion and developmental arrest” and the “effect on cell division / embryonic development” value ([7]; concentrations lower than 0.6 mM, within 120 minutes of incubation) was “cell proliferation continued but was abnormal”.
